Assays:
HeLa = assay: Cytotoxicity against human HeLa cells after 48 hrs by MTT assay; type: functional, cell-based
NIH3T3 = assay: Cytotoxicity against mouse NIH/3T3 cells after 48 hrs by MTT assay; type: cell-based; settings: NIH3T3, 48 h
MCF7 = assay: Cytotoxicity against human MCF7 cells after 48 hrs by MTT assay; type: functional, cell-based; settings: MCF7, 48 h
A549 = assay: Cytotoxicity against human A549 cells after 48 hrs by MTT assay; type: functional, cell-based; settings: A549, 48 h
B16 = assay: Cytotoxicity against mouse B16 cells after 48 hrs by MTT assay; type: functional, cell-based; settings: B16, 48 h

SMILES | IC50 (HeLa) | IC50 (NIH3T3) | IC50 (MCF7) | IC50 (A549) | IC50 (B16)
C/C=C/C(=O)NCc1cc2c([nH]c3ccccc32)c(-c2ccc(OC)cc2)n1 | 5410 nM | 2670 nM | 10800 nM | 3360 nM | 
COc1ccc(-c2nc(CNC(=O)CCCl)cc3c2[nH]c2ccccc23)cc1 | > 50000 nM | > 50000 nM | > 50000 nM | > 50000 nM | 
COc1ccc(-c2nc(CNC(=O)/C=C/c3ccc(O)c(OC)c3)cc3c2[nH]c2ccccc23)cc1 | 24.9 nM | 39.9 nM | 17.2 nM | 21.2 nM | 19.8 nM
COc1cc(/C=C/C(=O)NCc2cc3c([nH]c4ccccc43)c(-c3cccc(F)c3)n2)ccc1O | 23.9 nM | 36.9 nM | 17.9 nM | 22.4 nM | 19.4 nM
COc1ccc(-c2nc(CNC(=O)/C=C/c3cc(OC)ccc3OC)cc3c2[nH]c2ccccc23)cc1 | 25.4 nM | 34.4 nM | 16.5 nM | 18.9 nM | 22.1 nM
O=C(/C=C/c1cc(F)cc(F)c1)NCc1cc2c([nH]c3ccccc32)c(-c2cccc(F)c2)n1 | 23.6 nM | 36 nM | 16.5 nM | 21 nM | 18.2 nM
COc1cccc2c1C(=O)c1c(O)c3c(c(O)c1C2=O)C[C@@](O)(C(=O)CO)C[C@@H]3O[C@H]1C[C@H](N)[C@H](O)[C@H](C)O1 [DOXORUBICIN] | 780 nM | 1720 nM | 580 nM |  | 670 nM
COc1ccc(-c2nc(CNC(=O)/C=C/c3cc(OC)c(OC)c(OC)c3)cc3c2[nH]c2ccccc23)cc1 | 22.9 nM | 39.3 nM | 13.9 nM | 19.7 nM | 17.4 nM
O=C(/C=C/c1cccc(O)c1)NCc1cc2c([nH]c3ccccc32)c(-c2cccc(F)c2)n1 | 27 nM | 35.7 nM | 19.2 nM | 23.4 nM | 24.9 nM
O=C(/C=C/c1ccc(Cl)c(Cl)c1)NCc1cc2c([nH]c3ccccc32)c(-c2cccc(F)c2)n1 | 24.9 nM | 39 nM | 17 nM | 18 nM | 18.9 nM
COc1cc(-c2nc(CNC(=O)/C=C/c3ccc(Cl)cc3)cc3c2[nH]c2ccccc23)cc(OC)c1OC | 26.8 nM | 35.6 nM | 17.5 nM | 18.9 nM | 18.7 nM
COc1cc(/C=C/C(=O)NCc2cc3c([nH]c4ccccc43)c(-c3cc(OC)c(OC)c(OC)c3)n2)cc(OC)c1OC | 23.5 nM | 38.9 nM | 16.5 nM | 21.3 nM | 17.2 nM
COc1ccc(-c2nc(CNC(=O)/C=C/c3ccc(Cl)c(Cl)c3)cc3c2[nH]c2ccccc23)cc1 | 21.6 nM | 37.5 nM | 16.4 nM | 18.4 nM | 23 nM
COc1ccc(OC)c(/C=C/C(=O)NCc2cc3c([nH]c4ccccc43)c(-c3cc(OC)c(OC)c(OC)c3)n2)c1 | 25.1 nM | 39 nM | 17.2 nM | 18.8 nM | 19.2 nM
